{"source": "patent EP0961591B1", "about": "“METHOD TO ENHANCE TISSUE AC[…] RADIOLABELED COMPOUNDS” (BOARD OF SUPERVISORS OF LOUISIANA STATE UNIVERSITY AND …, priority 1997, dated 1999)", "key": {"DNA of IMR-32 cells": {"tested_on": "DNA of IMR-32 cells", "assay": "Binding to nuclear DNA (DNA extraction, gamma counting)", "assay_type": "cell-based, human", "settings": "for Radioligand (CPM ± SD), Non-Decay Corrected: 100 µg DNA, IMR-32 (SST-2 positive); for % Specifically Bound / CPM Specifically Bound (Difference), Non-Decay Corrected / Radioligand (CPM ± SD), Decay Corrected Values / SPM Specifically Bound (Difference), Decay Corrected Values / Radioligand + Unlabeled Ligand (CPM ± SD), Decay Corrected Values / Radioligand + Unlabeled Ligand (CPM ± SD), Non-Decay Corrected: IMR-32 DNA; for Radioligand + Unlabeled Ligand (CPM ± SD), Decay Corrected Values / Radioligand + Unlabeled Ligand (CPM ± SD), Non-Decay Corrected: + octreotide acetate", "experimental": "(§1) Cells were removed from the culture surface using a sterile rubber policeman. The suspended cells were washed three times in cold Dulbecco's phosphate buffered saline and processed through a DNA extraction procedure according to the vendor's directions (GenomicPrep® cells and Tissue DNA Isolation Kit, Pharmacia Biotech, Piscataway, NJ). The cells were incubated in the Cell Lysis Solution of the DNA isolation kit at 37°C for 10 minutes. Next, 3 µl of the Rnase Solution was added to the cell lysate, followed by thorough mixing and incubation at 37°C for 1 hour. The samples were cooled to room temperature, and 200 µl of the Protein Precipitation Solution were added. Following vortexing, the contents of each tube were centrifuged at 14,000 x g for 1 min, and the DNA pellet was washed with 70% ethanol. Following drying the DNA was hydrated in a DNA Hydration Solution, and the concentration of DNA determined by spectrometry at 260 nm. One hundred microgram (100 µg) quantities of each treatment were transferred to radioactive counting vials, and the amount of radioactivity associated with each was measured in a Beckman 5500 gamma counter. The data, as presented in Table 6, were obtained as counts per minute (cpm). The differences between radioactivity measured in cells incubated solely with radioligand and in cells incubated with both radioligand and unlabeled ligand were statistically analyzed using ANOVA.\n(§2) Additionally, the DNA from each flask was divided in half, and 1 mg of DNA from each flask was treated with proteinase-K (Lite Technologies, Gaithersburg, MD) for 1 hour at 37°C. The enzyme-treated DNA was then reprecipitated with ethanol and sodium acetate, washed with cold ethanol, and redissolved in DNA hydration solution. The concentration was determined by spectrophotometry at 260 nm. One hundred microgram (100 µg) of protease-treated DNA and an equal quantity of untreated DNA were transferred to radioactive counting vials and the amount of radioactivity measured in a Beckman 5500 gamma counter, as described above. The data, as presented in Table 7 and Figure 13, were obtained as counts per minute (cpm)."}, "DNA of SKNSH cells": {"tested_on": "DNA of SKNSH cells", "assay": "Binding to nuclear DNA (DNA extraction, gamma counting)", "assay_type": "cell-based, human", "settings": "for Radioligand (CPM ± SD), Non-Decay Corrected: 100 µg DNA, SKNSH (SST-2 negative); for % Specifically Bound / CPM Specifically Bound (Difference), Non-Decay Corrected / Radioligand + Unlabeled Ligand (CPM ± SD), Non-Decay Corrected: SKNSH DNA; for Radioligand + Unlabeled Ligand (CPM ± SD), Non-Decay Corrected: + octreotide acetate", "experimental": "as §1, §2"}, "[1]": {"settings": "100µg DNA, mean of three experiments"}, "[2]": {"settings": "100µg DNA, proteinase-K, mean of three experiments"}, "[3]": {"settings": "100µg DNA, single replicate experiments"}}, "note": "Several values for one entry are separate records, joined by “and”; a condition that tells them apart may be missing. Identical values can stand only once."}
{"substance": "(^111In-DTPA-D-Phe^1)-octreotide [^111In-pentetreotide]", "values": [{"measurement": "Radioligand (CPM ± SD), Non-Decay Corrected", "setting": "DNA of IMR-32 cells; 30 mins", "result": "128 ± 28", "unit": "CPM"}, {"measurement": "Radioligand (CPM ± SD), Non-Decay Corrected", "setting": "DNA of IMR-32 cells; 60 mins", "result": "152 ± 165", "unit": "CPM"}, {"measurement": "Radioligand (CPM ± SD), Non-Decay Corrected", "setting": "DNA of IMR-32 cells; 180 mins", "result": "291 ± 44", "unit": "CPM"}, {"measurement": "Radioligand (CPM ± SD), Non-Decay Corrected", "setting": "DNA of IMR-32 cells; 1440 mins", "result": "264 ± 104", "unit": "CPM"}, {"measurement": "Radioligand (CPM ± SD), Non-Decay Corrected", "setting": "DNA of IMR-32 cells; 2880 mins", "result": "624 ± 59", "unit": "CPM"}, {"measurement": "Binding to Cellular DNA, IMR-32 CELLS Untreated (CPM), Mean + S.D.", "setting": "DNA of IMR-32 cells; [1]", "result": "12,066 ± 2273 CPM"}, {"measurement": "Binding to Cellular DNA, IMR-32 CELLS Protease Treated (CPM)", "setting": "DNA of IMR-32 cells; 100µg DNA, proteinase-K 1 hour 37°C, single replicate experiments", "result": "10,276 CPM and 9.564 CPM and 12,648 CPM"}, {"measurement": "Binding to Cellular DNA, IMR-32 CELLS Protease Treated (CPM), Mean + S.D.", "setting": "DNA of IMR-32 cells; [2]", "result": "10,829 ± 1614 CPM"}, {"measurement": "Binding to Cellular DNA, IMR-32 CELLS Untreated (CPM)", "setting": "DNA of IMR-32 cells; [3]", "result": "11,512 CPM and 10,122 CPM and 14,566 CPM"}, {"measurement": "total bound CPM removed by the protease treatment", "setting": "DNA of IMR-32 cells; DNA of IMR-32 cells, proteinase-K", "result": "10-13%"}, {"measurement": "% Specifically Bound", "setting": "DNA of IMR-32 cells; 30 mins", "result": 35, "unit": "%"}, {"measurement": "CPM Specifically Bound (Difference), Non-Decay Corrected", "setting": "DNA of IMR-32 cells; 30 mins", "result": 45, "unit": "CPM"}, {"measurement": "Radioligand (CPM ± SD), Decay Corrected Values", "setting": "DNA of IMR-32 cells; 30 mins", "result": "128 ± 28", "unit": "CPM"}, {"measurement": "SPM Specifically Bound (Difference), Decay Corrected Values", "setting": "DNA of IMR-32 cells; 30 mins", "result": 45, "unit": "CPM"}, {"measurement": "% Specifically Bound", "setting": "DNA of IMR-32 cells; 60 mins", "result": 45, "unit": "%"}, {"measurement": "CPM Specifically Bound (Difference), Non-Decay Corrected", "setting": "DNA of IMR-32 cells; 60 mins", "result": 69, "unit": "CPM"}, {"measurement": "Radioligand (CPM ± SD), Decay Corrected Values", "setting": "DNA of IMR-32 cells; 60 mins", "result": "157 ± 165", "unit": "CPM"}, {"measurement": "SPM Specifically Bound (Difference), Decay Corrected Values", "setting": "DNA of IMR-32 cells; 60 mins", "result": 69, "unit": "CPM"}, {"measurement": "% Specifically Bound", "setting": "DNA of IMR-32 cells; 180 mins", "result": 43, "unit": "%"}, {"measurement": "CPM Specifically Bound (Difference), Non-Decay Corrected", "setting": "DNA of IMR-32 cells; 180 mins", "result": 126, "unit": "CPM"}, {"measurement": "Radioligand (CPM ± SD), Decay Corrected Values", "setting": "DNA of IMR-32 cells; 180 mins", "result": "291 ± 44", "unit": "CPM"}, {"measurement": "SPM Specifically Bound (Difference), Decay Corrected Values", "setting": "DNA of IMR-32 cells; 180 mins", "result": 126, "unit": "CPM"}, {"measurement": "% Specifically Bound", "setting": "DNA of IMR-32 cells; 1440 mins", "result": 67, "unit": "%"}, {"measurement": "CPM Specifically Bound (Difference), Non-Decay Corrected", "setting": "DNA of IMR-32 cells; 1440 mins", "result": 177, "unit": "CPM"}, {"measurement": "Radioligand (CPM ± SD), Decay Corrected Values", "setting": "DNA of IMR-32 cells; 1440 mins", "result": "338 ± 133", "unit": "CPM"}, {"measurement": "SPM Specifically Bound (Difference), Decay Corrected Values", "setting": "DNA of IMR-32 cells; 1440 mins", "result": 226, "unit": "CPM"}, {"measurement": "% Specifically Bound", "setting": "DNA of IMR-32 cells; 2880 mins", "result": 67, "unit": "%"}, {"measurement": "CPM Specifically Bound (Difference), Non-Decay Corrected", "setting": "DNA of IMR-32 cells; 2880 mins", "result": 421, "unit": "CPM"}, {"measurement": "Radioligand (CPM ± SD), Decay Corrected Values", "setting": "DNA of IMR-32 cells; 2880 mins", "result": "1023 ± 97", "unit": "CPM"}, {"measurement": "SPM Specifically Bound (Difference), Decay Corrected Values", "setting": "DNA of IMR-32 cells; 2880 mins", "result": 690, "unit": "CPM"}, {"measurement": "Radioligand + Unlabeled Ligand (CPM ± SD), Decay Corrected Values", "setting": "DNA of IMR-32 cells; 30 mins", "result": "83 ± 12", "unit": "CPM"}, {"measurement": "Radioligand + Unlabeled Ligand (CPM ± SD), Non-Decay Corrected", "setting": "DNA of IMR-32 cells; 30 mins", "result": "83 ± 12", "unit": "CPM"}, {"measurement": "Radioligand + Unlabeled Ligand (CPM ± SD), Decay Corrected Values", "setting": "DNA of IMR-32 cells; 60 mins", "result": "83 ± 1", "unit": "CPM"}, {"measurement": "Radioligand + Unlabeled Ligand (CPM ± SD), Non-Decay Corrected", "setting": "DNA of IMR-32 cells; 60 mins", "result": "83 ± 1", "unit": "CPM"}, {"measurement": "Radioligand + Unlabeled Ligand (CPM ± SD), Decay Corrected Values", "setting": "DNA of IMR-32 cells; 180 mins", "result": "165 ± 15", "unit": "CPM"}, {"measurement": "Radioligand + Unlabeled Ligand (CPM ± SD), Non-Decay Corrected", "setting": "DNA of IMR-32 cells; 180 mins", "result": "165 ± 15", "unit": "CPM"}, {"measurement": "Radioligand + Unlabeled Ligand (CPM ± SD), Decay Corrected Values", "setting": "DNA of IMR-32 cells; 1440 mins", "result": "112 ± 8", "unit": "CPM"}, {"measurement": "Radioligand + Unlabeled Ligand (CPM ± SD), Non-Decay Corrected", "setting": "DNA of IMR-32 cells; 1440 mins", "result": "87 ± 6", "unit": "CPM"}, {"measurement": "Radioligand + Unlabeled Ligand (CPM ± SD), Decay Corrected Values", "setting": "DNA of IMR-32 cells; 2880 mins", "result": "332 ± 33", "unit": "CPM"}, {"measurement": "Radioligand + Unlabeled Ligand (CPM ± SD), Non-Decay Corrected", "setting": "DNA of IMR-32 cells; 2880 mins", "result": "203 ± 20", "unit": "CPM"}, {"measurement": "Radioligand (CPM ± SD), Non-Decay Corrected", "setting": "DNA of SKNSH cells; 60 minutes", "result": "85 ± 8", "unit": "CPM"}, {"measurement": "Radioligand (CPM ± SD), Non-Decay Corrected", "setting": "DNA of SKNSH cells; 4320 minutes", "result": "232 ± 10", "unit": "CPM"}, {"measurement": "Radioligand (CPM ± SD), Non-Decay Corrected", "setting": "DNA of SKNSH cells; […]", "result": "87 ± 1", "unit": "CPM"}, {"measurement": "Binding to Cellular DNA, SKNSH CELLS Untreated (CPM), Mean + S.D.", "setting": "DNA of SKNSH cells; [1]", "result": "285 ± 56", "unit": "CPM"}, {"measurement": "Binding to Cellular DNA, SKNSH CELLS Protease Treated (CPM), Mean + S.D.", "setting": "DNA of SKNSH cells; [2]", "result": "247 ± 149", "unit": "CPM"}, {"measurement": "Binding to Cellular DNA, SKNSH CELLS Untreated (CPM)", "setting": "DNA of SKNSH cells; [3]", "result": "316 CPM and 319 CPM"}, {"measurement": "% Specifically Bound", "setting": "DNA of SKNSH cells; 60 minutes", "result": 0, "unit": "%"}, {"measurement": "CPM Specifically Bound (Difference), Non-Decay Corrected", "setting": "DNA of SKNSH cells; 60 minutes", "result": -6, "unit": "CPM"}, {"measurement": "CPM Specifically Bound (Difference), Non-Decay Corrected", "setting": "DNA of SKNSH cells; 4320 minutes", "result": "+58 CPM"}, {"measurement": "Radioligand + Unlabeled Ligand (CPM ± SD), Non-Decay Corrected", "setting": "DNA of SKNSH cells; 60 minutes", "result": "91 ± 25", "unit": "CPM"}, {"measurement": "Radioligand + Unlabeled Ligand (CPM ± SD), Non-Decay Corrected", "setting": "DNA of SKNSH cells; 4320 minutes", "result": "174 ± 41", "unit": "CPM"}, {"measurement": "% Specifically Bound", "setting": "DNA of SKNSH cells; […]", "result": 8, "unit": "%"}, {"measurement": "CPM Specifically Bound (Difference), Non-Decay Corrected", "setting": "DNA of SKNSH cells; […]", "result": "+7 CPM"}]}
